Source: patent US11414424B2, “Cardiac sarcomere inhibitors” (Cytokinetics, Inc., priority 2018, dated 2022)

Test system: bovine cardiac myofibrils
Experiment: Myofibril assay: PK/LDH-coupled steady-state ATPase activity of skinned bovine cardiac myofibrils
Type: biochemical
Conditions: Ca2+ activating to 75% of maximal rate
In short: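 Steady-state ATPase of detergent-skinned bovine left-ventricular myofibrils (1 mg/mL), PK/LDH-coupled NADH read at 340 nm, in PIPES/MgCl2 buffer pH 6.8 with 50 μM ATP, 0.6 mM EGTA and CaCl2 set for 50% or 75% activation. Inhibition of activity measured.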

CDMF75 IC15 [nM] | SMILES
200 | CC(C)(C)OC(=O)[C@H]1C[C@]2(C1)C(=O)N(c1ccc(C#N)cc1F)CC(=O)N2Cc1ccc(C(F)(F)F)cc1 [Compound 429B]
400 | CNC(=O)N[C@H]1C[C@]2(C1)C(=O)N(c1ccc(C#N)cc1F)CC(=O)N2Cc1ccc(C(F)(F)F)cc1 [Compound 463B]
600 | N#Cc1ccc(N2CC(=O)N(Cc3ccc(C(F)(F)F)cc3)[C@]3(C[C@H](CO)C3)C2=O)c(F)c1 [Compound 475B]
2800 | CC(C)(O)C1CC2(C1)C(=O)N(c1ccc(C#N)cc1F)CC(=O)N2Cc1ccc(C(F)(F)F)cc1 (stereo not drawn) [Compound 479B]
700 | CNC(=O)[C@H]1C[C@]2(C1)C(=O)N(c1ccc(C#N)cc1F)CC(=O)N2Cc1ccc(C(F)(F)F)cc1 [Compound 486B]
200 | COC(=O)c1ccccc1N1CC2(C1)C(=O)N(c1ccc(C#N)cc1F)CC(=O)N2Cc1ccc(C(F)(F)F)cc1 [Compound 532, methyl 2-(8-(4-cyano-2-fluorophenyl)-6,9-dioxo-5-(4-(trifluoromethyl)benzyl)-2,5,8-triazaspiro[3.5]nonan-2-yl)benzoate]
300 | COC(=O)c1cccc(N2CC3(C2)C(=O)N(c2ccc(C#N)cc2F)CC(=O)N3Cc2ccc(C(F)(F)F)cc2)c1 [Compound 533, methyl 3-(8-(4-cyano-2-fluorophenyl)-6,9-dioxo-5-(4-(trifluoromethyl)benzyl)-2,5,8-triazaspiro[3.5]nonan-2-yl)benzoate]
200 | COC(=O)c1ccc(N2CC3(C2)C(=O)N(c2ccc(C#N)cc2F)CC(=O)N3Cc2ccc(C(F)(F)F)cc2)cc1 [Compound 534, methyl 4-(8-(4-cyano-2-fluorophenyl)-6,9-dioxo-5-(4-(trifluoromethyl)benzyl)-2,5,8-triazaspiro[3.5]nonan-2-yl)benzoate]
300 | CNc1ccccc1N1CC2(C1)C(=O)N(c1ccc(C#N)cc1F)CC(=O)N2Cc1ccc(C(F)(F)F)cc1 [Compound 535, 3-fluoro-4-(2-(2-(methyl-amino)phenyl)-6,9-dioxo-5-(4-(trifluoromethyl)-benzyl)-2,5,8-triazaspiro-[3.5]nonan-8-yl)benzonitrile]
200 | CNc1cccc(N2CC3(C2)C(=O)N(c2ccc(C#N)cc2F)CC(=O)N3Cc2ccc(C(F)(F)F)cc2)c1 [Compound 536, 3-fluoro-4-[2-[3-(methylamino)phenyl]-6,9-dioxo-5-[[4-(trifluoromethyl)phenyl]methyl]-2,5,8-triazaspiro[3.5]nonan-8-yl]benzonitrile]
300 | CNC(=O)c1ccccc1N1CC2(C1)C(=O)N(c1ccc(C#N)cc1F)CC(=O)N2Cc1ccc(C(F)(F)F)cc1 [Compound 537, 2-(8-(4-cyano-2-fluorophenyl)-6,9-dioxo-5-(4-(trifluoromethyl)benzyl)-2,5,8-triazaspiro[3.5]nonan-2-yl)-N-methylbenzamide]
200 | CNc1ccc(N2CC3(C2)C(=O)N(c2ccc(C#N)cc2F)CC(=O)N3Cc2ccc(C(F)(F)F)cc2)cc1 [Compound 538, 3-fluoro-4-(2-(4-(methylamino)phenyl)-6,9-dioxo-5-(4-(trifluoromethyl)benzyl)-2,5,8-triazaspiro[3.5]nonan-8-yl)benzonitrile]
200 | CNC(=O)c1cccc(N2CC3(C2)C(=O)N(c2ccc(C#N)cc2F)CC(=O)N3Cc2ccc(C(F)(F)F)cc2)c1 [Compound 539, 3-(8-(4-cyano-2-fluorophenyl)-6,9-dioxo-5-(4-(trifluoromethyl)benzyl)-2,5,8-triazaspiro[3.5]nonan-2-yl)-N-methylbenzamide]

Second part, the molecule before the results:

SMILES | CDMF75 IC15 [nM]
CC(C)NC(=O)N1CCC2(C1)C(=O)N(C(C)C)CC(=O)N2Cc1ccc(Cl)cc1 (stereo not drawn) [Compound 383, 6-(4-chlorobenzyl)-N,9-diisopropyl-7,10-dioxo-2,6,9-triazaspiro[4.5]-decane-2-carboxamide] | >39000
CC(C)N1CC(=O)N(Cc2ccc(Cl)cc2)C2(CCN(C(=O)Nc3ccccn3)C2)C1=O (stereo not drawn) [Compound 385, 6-(4-chlorobenzyl)-9-isopropyl-7,10-dioxo-N-(pyridin-2-yl)-2,6,9-triazaspiro[4.5]decane-2-carboxamide] | >39000
COCCNC(=O)N1CCC2(C1)C(=O)N(C(C)C)CC(=O)N2Cc1ccc(Cl)cc1 (stereo not drawn) [Compound 387, 6-(4-chlorobenzyl)-9-isopropyl-N-(2-methoxy-ethyl)-7,10-dioxo-2,6,9-triazaspiro[4.5]decane-2-carboxamide] | >39000
Cc1noc([C@H]2C[C@]3(C2)C(=O)N(c2ccc(C#N)cc2F)CC(=O)N3Cc2ccc(C(F)(F)F)cc2)n1 [Compound 432B] | 500
Cc1cnc(C2CC3(C2)C(=O)N(c2ccc(C#N)cc2F)CC(=O)N3Cc2ccc(C(F)(F)F)cc2)o1 (stereo not drawn) [Compound 436B] | 300
Cc1coc([C@H]2C[C@]3(C2)C(=O)N(c2ccc(C#N)cc2F)CC(=O)N3Cc2ccc(C(F)(F)F)cc2)n1 [Compound 442B] | 400
N#Cc1ccc(N2CC(=O)N(Cc3ccc(C(F)(F)F)cc3)[C@]3(C[C@H](C(=O)N4CCOCC4)C3)C2=O)c(F)c1 [Compound 444B] | 200
N#Cc1ccc(N2CC(=O)N(Cc3ccc(C(F)(F)F)cc3)[C@]3(C[C@H](c4nnc(C(F)F)o4)C3)C2=O)c(F)c1 [Compound 454B] | 100
N#Cc1ccc(N2CC(=O)N(Cc3ccc(C(F)(F)F)cc3)[C@]3(C[C@H](C(=O)NC4CC4)C3)C2=O)c(F)c1 [Compound 459, (2r,4r)-8-(4-cyano-2-fluoro-phenyl)-N-cyclopropyl-6,9-dioxo-5-(4-(trifluoromethyl)benzyl)-5,8-diazaspiro[3.5]nonane-2-carboxamide] | 4500
CNC(=O)[C@H]1C[C@]2(C1)C(=O)N(C(C)C)CC(=O)N2Cc1ccc(C(F)(F)F)cc1 [Compound 498B] | 29800
CC(=O)N1CC2(C1)C(=O)N(c1ncc(Cl)cc1F)CC(=O)N2Cc1ccc(C(F)(F)F)cc1 [Compound 528, 2-acetyl-8-(5-chloro-3-fluoropyridin-2-yl)-5-(4-(trifluoromethyl)benzyl)-2,5,8-triazaspiro[3.5]nonane-6,9-dione] | 2900
CC(=O)N1CC2(C1)C(=O)N(c1ncc(C#N)cc1C)CC(=O)N2Cc1ccc(C(F)(F)F)cc1 [Compound 529, 6-(2-acetyl-6,9-dioxo-5-(4-(trifluoromethyl)benzyl)-2,5,8-triazaspiro[3.5]nonan-8-yl)-5-methylnicotinonitrile] | 5500
CC(=O)N1CC2(C1)C(=O)N(c1ncc(C#N)cc1F)CC(=O)N2Cc1ccc(C(F)(F)F)cc1 [Compound 530, 6-(2-acetyl-6,9-dioxo-5-(4-(trifluoromethyl)benzyl)-2,5,8-triazaspiro[3.5]nonan-8-yl)-5-fluoronicotinonitrile] | 4700
CNc1ccccc1C(=O)N1CC2(C1)C(=O)N(c1ccc(C#N)cc1F)CC(=O)N2Cc1ccc(C(F)(F)F)cc1 [Compound 531, 3-fluoro-4-(2-(2-(methylamino)benzoyl)-6,9-dioxo-5-(4-(trifluoromethyl)benzyl)-2,5,8-triazaspiro[3.5]nonan-8-yl)benzonitrile] | 5000
